Laboratory results from paper PMC7163368 (British Journal of Clinical Pharmacology, 2020).
“And” between values parts separate entries of the source, which are not always exact repeats. Identical values can stand only once. “Also recorded” adds a separate entry of the source.

Tests used:
DPP‐IV = DPP‐IV (Homo sapiens, UniProt P27487); experiment: Plasma DPP-IV activity; format: in vivo; conditions: for Post‐dose DPP‐IV activity over 24 hours: day 0, mean
[1] = Safety and tolerability: adverse events, laboratory, ECG, physical examination; format: in vivo, human
[2] = 30 mg i.v. (n = 5), day 0, mean (SD)
[3] = 30 mg s.c. (n = 5), day 0, mean (SD)
[4] = 60 mg s.c. (n = 10), day 0, mean (SD)
[5] = 90 mg s.c. (n = 10), day 0, mean (SD)

Sequence of DPP‐IV (P27487 39-766): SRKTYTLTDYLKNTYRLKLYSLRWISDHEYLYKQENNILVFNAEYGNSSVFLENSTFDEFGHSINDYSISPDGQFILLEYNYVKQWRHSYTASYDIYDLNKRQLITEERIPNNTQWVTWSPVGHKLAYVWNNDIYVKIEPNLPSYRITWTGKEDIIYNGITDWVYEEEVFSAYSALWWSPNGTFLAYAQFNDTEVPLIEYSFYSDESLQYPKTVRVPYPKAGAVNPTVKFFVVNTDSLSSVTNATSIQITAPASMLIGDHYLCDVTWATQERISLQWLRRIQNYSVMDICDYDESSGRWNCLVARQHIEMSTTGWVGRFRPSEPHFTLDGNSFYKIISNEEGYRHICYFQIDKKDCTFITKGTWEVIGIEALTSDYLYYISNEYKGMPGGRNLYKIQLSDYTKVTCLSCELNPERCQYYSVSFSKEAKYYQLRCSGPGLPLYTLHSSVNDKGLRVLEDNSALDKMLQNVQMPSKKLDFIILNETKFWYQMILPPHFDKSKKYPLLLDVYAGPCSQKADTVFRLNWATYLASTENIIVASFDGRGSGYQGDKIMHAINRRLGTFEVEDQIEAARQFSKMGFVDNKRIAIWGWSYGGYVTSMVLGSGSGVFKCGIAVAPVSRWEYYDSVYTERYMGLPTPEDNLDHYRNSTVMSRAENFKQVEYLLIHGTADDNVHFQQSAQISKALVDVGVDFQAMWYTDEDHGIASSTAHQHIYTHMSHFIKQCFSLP

O=C(CN[C@@H]1CCNC1)N1CCC[C@H]1B(O)O [dutogliptin]
Post‐dose DPP‐IV activity over 24 hours (DPP‐IV; 30 mg i.v. (n = 5)): 37.83%
AUEC0‐24h (DPP‐IV; [2]): 908 (149) %*h
Lowest DPP‐IV activity (DPP‐IV; [2]): 7.63 (0.95) %
Time to maximum DPP‐IV inhibition (DPP‐IV; 30 mg intravenous): 0.5 h
Post‐dose DPP‐IV activity over 24 hours (DPP‐IV; 30 mg s.c. (n = 5)): 35.36%
AUEC0‐24h (DPP‐IV; [3]): 849 (74) %*h
Lowest DPP‐IV activity (DPP‐IV; [3]): 8.03 (1.76) %
Time to lowest DPP‐IV activity (DPP‐IV; 30 mg subcutaneous): ≤ 2 h
Post‐dose DPP‐IV activity over 24 hours (DPP‐IV; 60 mg s.c. (n = 10)): 22.42%
AUEC0‐24h (DPP‐IV; [4]): 538 (44) %*h
Lowest DPP‐IV activity (DPP‐IV; [4]): 7.67 (1.18) %
Time to lowest DPP‐IV activity (DPP‐IV; 60 mg subcutaneous): ≤ 2 h
Post‐dose DPP‐IV activity over 24 hours (DPP‐IV; 90 mg s.c. (n = 10)): 20.46%
AUEC0‐24h (DPP‐IV; [5]): 491 (86) %*h
Lowest DPP‐IV activity (DPP‐IV; [5]): 7.58 (1.17) %
Time to lowest DPP‐IV activity (DPP‐IV; 90 mg subcutaneous): ≤ 4 h
Post‐dose DPP‐IV activity over 24 hours (DPP‐IV; 120 mg s.c. (n = 10)): 17.96%
AUEC0‐24h (DPP‐IV; 120 mg s.c. (n = 10), day 0, mean (SD)): 431 (93) %*h
DPP‐IV inhibition over 24 hours (DPP‐IV; 120 mg s.c. multiple doses, day 6): 86% and > 86%
Maximum AUEC0‐24h (DPP‐IV; 120 mg s.c. multiple dosing cohort, day 6, SD: 73): 342 h %
Time to lowest DPP‐IV activity (DPP‐IV; 120 mg subcutaneous): ≤ 4 h
DPP‐IV activity reduced to (DPP‐IV; all participants receiving 60 mg or more subcutaneously): < 10%
Maximum DPP‐IV inhibition (DPP‐IV; all subjects receiving ≥60 mg): > 90%
Lowest DPP‐IV activity (DPP‐IV; day 0, subcutaneous administration overall, SD: 1.60): 7.19%
AEs with intravenous bolus injection ([1]; 30 mg i.v.): not associated with any AEs
Dose dependence of related systemic AEs ([1]; P > .999): No dose‐dependent increase
Dose dependence of subjects experiencing at least 1 local AE ([1]; P > .999): no dose‐dependent increase
Erythema, related: subjects with at least 1 AE ([1]; Total (n = 40)): 34 (85%)
Fatigue, related: subjects with at least 1 AE ([1]; Total (n = 40)): 2 (5%)
Headache, related: subjects with at least 1 AE ([1]; Total (n = 40)): 2 (5%)
Hematoma, related: subjects with at least 1 AE ([1]; Total (n = 40)): 4 (10%)
Local AEs, related: subjects with at least 1 AE ([1]; Total (n = 40)): 34 (85%)
Other local AEs, related: subjects with at least 1 AE ([1]; Total (n = 40)): 1 (3%)
Other systemic AEs, related: subjects with at least 1 AE ([1]; Total (n = 40)): 2 (5%)
Pain with touching, related: subjects with at least 1 AE ([1]; Total (n = 40)): 8 (20%)
Pain without touching, related: subjects with at least 1 AE ([1]; Total (n = 40)): 3 (8%)
Swelling, related: subjects with at least 1 AE ([1]; Total (n = 40)): 2 (5%)
Systemic AEs, related: subjects with at least 1 AE ([1]; Total (n = 40)): 6 (15%)
Nonrelated serious AE (head injury, hospitalization) ([1]; all cohorts): 1
Nonrelated severe AEs ([1]; all cohorts): Two nonrelated severe AEs
Related systemic AEs, total ([1]; all cohorts): 6
Related serious (or severe) adverse events ([1]; all cohorts, 40 healthy males): No related serious adverse events occurred; also recorded: No study drug‐related severe or serious AEs were observed
All AEs, related: subjects with at least 1 AE ([1]; i.v. single dose 30 mg (n = 5)): 0
Erythema, related: subjects with at least 1 AE ([1]; i.v. single dose 30 mg (n = 5)): 0
Fatigue, related: subjects with at least 1 AE ([1]; i.v. single dose 30 mg (n = 5)): 0
Headache, related: subjects with at least 1 AE ([1]; i.v. single dose 30 mg (n = 5)): 0
Hematoma, related: subjects with at least 1 AE ([1]; i.v. single dose 30 mg (n = 5)): 0
Induration, related: subjects with at least 1 AE ([1]; i.v. single dose 30 mg (n = 5)): 0
Local AEs, related: subjects with at least 1 AE ([1]; i.v. single dose 30 mg (n = 5)): 0
Other local AEs (burning sensation at the injection site), related: subjects with at least 1 AE ([1]; i.v. single dose 30 mg (n = 5)): 0
Other systemic AEs (dizziness and nausea), related: subjects with at least 1 AE ([1]; i.v. single dose 30 mg (n = 5)): 0
Pain with touching, related: subjects with at least 1 AE ([1]; i.v. single dose 30 mg (n = 5)): 0
Pain without touching, related: subjects with at least 1 AE ([1]; i.v. single dose 30 mg (n = 5)): 0
Swelling, related: subjects with at least 1 AE ([1]; i.v. single dose 30 mg (n = 5)): 0
Systemic AEs, related: subjects with at least 1 AE ([1]; i.v. single dose 30 mg (n = 5)): 0
All AEs, related: subjects with at least 1 AE ([1]; s.c. multidose 60 mg (n = 5)): 5 (100%)
Erythema, related: subjects with at least 1 AE ([1]; s.c. multidose 60 mg (n = 5)): 5 (100%)
Fatigue, related: subjects with at least 1 AE ([1]; s.c. multidose 60 mg (n = 5)): 1 (20%)
Headache, related: subjects with at least 1 AE ([1]; s.c. multidose 60 mg (n = 5)): 0
Hematoma, related: subjects with at least 1 AE ([1]; s.c. multidose 60 mg (n = 5)): 1 (20%)
Induration, related: subjects with at least 1 AE ([1]; s.c. multidose 60 mg (n = 5)): 4 (80%)
Local AEs, related: subjects with at least 1 AE ([1]; s.c. multidose 60 mg (n = 5)): 5 (100%)
Other local AEs, related: subjects with at least 1 AE ([1]; s.c. multidose 60 mg (n = 5)): 0
Other systemic AEs, related: subjects with at least 1 AE ([1]; s.c. multidose 60 mg (n = 5)): 0
Pain with touching, related: subjects with at least 1 AE ([1]; s.c. multidose 60 mg (n = 5)): 3 (60%)
Pain without touching, related: subjects with at least 1 AE ([1]; s.c. multidose 60 mg (n = 5)): 0
Swelling, related: subjects with at least 1 AE ([1]; s.c. multidose 60 mg (n = 5)): 0
Systemic AEs, related: subjects with at least 1 AE ([1]; s.c. multidose 60 mg (n = 5)): 1 (20%)
All AEs, related: subjects with at least 1 AE ([1]; s.c. multidose 90 mg (n = 5)): 5 (100%)
Erythema, related: subjects with at least 1 AE ([1]; s.c. multidose 90 mg (n = 5)): 5 (100%)
Fatigue, related: subjects with at least 1 AE ([1]; s.c. multidose 90 mg (n = 5)): 1 (20%)
Headache, related: subjects with at least 1 AE ([1]; s.c. multidose 90 mg (n = 5)): 1 (20%)
Hematoma, related: subjects with at least 1 AE ([1]; s.c. multidose 90 mg (n = 5)): 1 (20%)
